From patent US20240383954A1, “PEPTIDE INHIBITORS OF INTERLEUKIN-23 RECEPTOR AND THEIR USE TO TREAT INFLAMMATORY DISEASES” (Janssen Biotech, Inc., priority 2020, published 2024) come the findings set out here.

This assay deals with IL-23R (Homo sapiens, UniProt Q5VWK5). The assay is described as follows: cell-based. Conditions: PBMC pSTAT3 IC50 (nM), PBMCs from healthy donors, IL-23 5 ng/mL, 30 minutes, phosphorylated STAT3.

Each structure is given as a SMILES string. Positions of bridges follow the written chain, without caps; N, C: chain ends. Non-standard residues stand in square brackets, D forms with d. Residues, ends and D or L forms follow the SMILES beside them. *: point of attachment. Trp(7-Me) = Cc1cccc2c(C[C@H](N)C(=O)O)c[nH]c12; 2Nal = N[C@@H](Cc1ccc2ccccc2c1)C(=O)O; AEF = NCCOc1ccc(C[C@H](N)C(=O)O)cc1; αMeF = C[C@](N)(Cc1ccccc1)C(=O)O; Pen = CC(C)(S)[C@H](N)C(=O)O; Thp = NC1(C(=O)O)CCOCC1; Pentanoyl = CCCCC(=O)*
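Note: cryopreserved PBMCs stimulated at 37 °C in 5% CO2, then lysed, with phosphorylated STAT3 quantified in lysates using a phospho-STAT panel kit.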

IL-23R, sequence (Q5VWK5 24-629): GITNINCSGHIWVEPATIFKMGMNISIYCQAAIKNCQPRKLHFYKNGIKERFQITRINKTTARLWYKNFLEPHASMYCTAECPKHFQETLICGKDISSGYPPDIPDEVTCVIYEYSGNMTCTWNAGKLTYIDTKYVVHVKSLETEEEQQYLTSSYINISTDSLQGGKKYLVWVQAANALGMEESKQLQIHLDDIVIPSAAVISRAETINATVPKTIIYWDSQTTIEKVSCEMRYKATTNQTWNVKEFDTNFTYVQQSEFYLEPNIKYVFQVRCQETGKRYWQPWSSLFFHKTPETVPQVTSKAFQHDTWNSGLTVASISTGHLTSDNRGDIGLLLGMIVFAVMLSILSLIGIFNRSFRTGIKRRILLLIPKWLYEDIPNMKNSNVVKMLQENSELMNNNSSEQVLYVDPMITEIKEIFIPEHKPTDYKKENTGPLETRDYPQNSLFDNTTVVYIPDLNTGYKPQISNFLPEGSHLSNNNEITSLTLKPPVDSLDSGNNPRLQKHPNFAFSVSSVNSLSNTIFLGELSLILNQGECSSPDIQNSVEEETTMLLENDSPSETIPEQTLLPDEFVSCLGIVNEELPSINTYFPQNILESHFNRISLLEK
Method: Cryopreserved peripheral blood mononuclear cells (PBMCs) from healthy donors were thawed and washed twice in ImmunoCult-XF T cell expansion medium (XF-TCEM) supplemented with CTL anti-aggregate wash. […] The cells were stimulated with cytokine for 30 minutes at 37° C. in 5% CO2, transferred onto ice for 10 minutes, and lysed. Cell lysates were stored at −80° C. until phosphorylated STAT3 was measured using the phospho-STAT panel kit (Meso Scale Discovery, K15202D).

In turn, `CC(=O)NCCCC[C@@H]1NC(=O)[C@H](Cc2c[nH]c3ccccc23)NC(=O)[C@H]([C@@H](C)O)NC(=O)[C@H](CC(N)=O)NC(=O)[C@@H](NC(C)=O)CSSC[C@@](C)(C(=O)N[C@@H](Cc2ccc(OCCN)cc2)C(=O)N[C@@H](Cc2ccc3ccccc3c2)C(=O)N[C@@](C)(CCCCN)C(=O)N[C@@H](CCCCNC(C)=O)C(=O)N[C@@H](CC(N)=O)C(=O)NC2(C(N)=O)CCOCC2)NC1=O` [Compound 121, Ac-[Cys]-N-T-W-[Lys(Ac)]-[aMeCys]-Phe[4-(2-aminoethoxy)]-[2-Nal]-[a-MeLys]-[Lys(Ac)]-N-[THP]-NH2] displayed a 50% inhibitory concentration (IC50) of 41 nM.

`CCCCC(=O)N[C@H](CCCNC(=N)N)C(=O)N[C@@H]1C(=O)N[C@@H](CCC(N)=O)C(=O)N[C@@H]([C@@H](C)O)C(=O)N[C@@H](Cc2c[nH]c3ccccc23)C(=O)N[C@@H](CCC(N)=O)C(=O)N[C@H](C(=O)N[C@@H](Cc2ccc(OCCN)cc2)C(=O)N[C@@H](Cc2ccc3ccccc3c2)C(=O)NC2(C(=O)N[C@@H](CCC(=O)O)C(=O)N[C@@H](CC(N)=O)C(=O)NC3(C(N)=O)CCOCC3)CCOCC2)C(C)(C)SSC1(C)C` [Compound 9, [Pentanoic acid]-[(D)Arg]-[Pen]-Q-T-W-Q-[Pen]-Phe[4-(2-aminoethoxy)]-[2-Nal]-[THP]-E-N-[THP]-NH2] (Pentanoyl-[dR][Pen]QTWQ[Pen][AEF][2Nal][Thp]EN[Thp]-NH2; disulfide 2-7): the IC50 turned out to be 29 nM.

On to `CC(=O)NCCCC[C@@H]1NC(=O)[C@H](Cc2c[nH]c3c(C)cccc23)NC(=O)[C@H]([C@@H](C)O)NC(=O)[C@H](CC(N)=O)NC(=O)[C@@H](NC(C)=O)C(C)(C)SSC(C)(C)[C@@H](C(=O)N[C@@H](Cc2ccc(OCCN)cc2)C(=O)N[C@@H](Cc2ccc3ccccc3c2)C(=O)N[C@@](C)(CCCCN)C(=O)N[C@@H](CCCCNC(C)=O)C(=O)N[C@@H](CC(N)=O)C(=O)N[C@@](C)(Cc2ccccc2)C(=O)N[C@H](Cc2ccc(N)cc2)C(N)=O)NC1=O` [Compound 114, Ac-[Pen]-N-T-[W(7-Me)]-[Lys(Ac)]-[Pen]-Phe[4-(2-aminoethoxy)]-[2-Nal]-[a-MeLys]-[Lys(Ac)]-N-[a-MePhe]-(D)Phe[4-NH2]-NH2], for which the half-inhibitory concentration (IC50) was found to be 12 nM.

In turn, `CC(=O)N[C@H](CCCNC(=N)N)C(=O)N[C@H]1CCSC[C@@H](C(=O)N[C@@H](Cc2ccc(OCCN)cc2)C(=O)N[C@@H](Cc2ccc3ccccc3c2)C(=O)NC2(C(=O)N[C@@](C)(CCC(=O)O)C(=O)N[C@@H](CC(N)=O)C(=O)N[C@@H](Cc3c[nH]c4ccc(F)cc34)C(N)=O)CCOCC2)NC(=O)[C@H](CCC(N)=O)NC(=O)[C@H](Cc2c[nH]c3ccccc23)NC(=O)[C@H]([C@@H](C)O)NC(=O)[C@H](CCC(N)=O)NC1=O` [Compound 81, Ac-[(D)Arg]-[Abu]-Q-T-W-Q-[Cys]-Phe[4-(2-aminoethoxy)]-[2-Nal]-[THP]-[aMeGlu]-N-[W(5-F)]-NH2] had a half-maximal inhibitory concentration (IC50) of 30 nM.

Take `CC(=O)NCCCC[C@@H]1NC(=O)[C@H](Cc2c[nH]c3c(C)cccc23)NC(=O)[C@H]([C@@H](C)O)NC(=O)[C@H](CC(N)=O)NC(=O)[C@@H](NC(=O)[C@@H](CCCNC(=N)N)NC(C)=O)C(C)(C)SSC(C)(C)[C@@H](C(=O)N[C@@H](Cc2ccc(OCCN)cc2)C(=O)N[C@@H](Cc2ccc3ccccc3c2)C(=O)NC2(C(=O)N[C@@H](CCC(=O)O)C(=O)N[C@@H](CC(N)=O)C(=O)N[C@@](C)(Cc3ccccc3)C(N)=O)CCOCC2)NC1=O` [Compound 124, Ac-[(D)Arg]-[Pen]-N-T-[W(7-Me)]-[Lys(Ac)]-[Pen]-Phe[4-(2-aminoethoxy)]-[2-Nal]-[THP]-E-N-[a-MePhe]-NH2] (Ac-[dR][Pen]NT[Trp(7-Me)]K(Ac)[Pen][AEF][2Nal][Thp]EN[αMeF]-NH2; disulfide 2-7): the IC50 amounted to 11 nM.

What is called IC50 is the concentration at which inhibition is half-maximal. A low value points to higher potency.
